Molecules are shown by their SMILES.

Consider two molecules from patent US12692478B2, “Populations of enriched regulatory T cells and methods for producing same” (Cellenkos Inc., priority 2021, dated 2026).

One data set deals with SLE-PBMC. As to the kind of experiment: IFN-gamma release by pathogenic lupus cells (SLE-PBMC). Type of data set: cell-based, human. The settings on record: control, non-specific inflammatory stimulus. The text has this:
FIG. 32 is a bar graph depicting the amount of interferon (IFN)—gamma released by pathogenic lupus cells in the presence or absence of combinations of (1) activated Treg cells; (2) ruxolitinib; and/or (3) camptothecin. Rux=ruxolitinib. SLE-PBMC=peripheral blood mononuclear cells derived from subjects with systemic lupus erythematosus. D6=Day 6.

For data set [1], the system named is graft versus host disease (GVHD). The settings on record: mouse, in vivo. The protocol: FIG. 33 depicts a schematic for treatment of a xenogeneic mouse graft versus host disease (GVHD) model with a ruxolitinib and activated Treg cells regimen. PBMC=peripheral blood mononuclear cells.
A xenogeneic mouse graft versus host disease (GVHD) model was treated with a ruxolitinib and activated CB Treg cells regimen, as depicted in FIG. 33. NSG mice underwent sublethal irradiation on day −1 followed by injection of 1×10^7 donor peripheral blood (PB) mononuclear cells (MNCs) on day 0. Oral ruxolitinib at 1 mg daily was fed continuously to the mice in the presence or absence of 1×10^7 CB Treg cells, tagged with CellTrace™ Violet dye (ThermoFisher), administered on days +4, +7, +11, +18. Mice were followed every other day for weight, GVHD score and survival. Serial blood draws were performed to analyze for cell compartment and cytokine assays.

Turning to `CC[C@@]1(O)C(=O)OCc2c1cc1n(c2=O)Cc2cc3ccccc3nc2-1` [Camptothecin], the “IFNγ secretion from CB Treg cells” value in the data set on SLE-PBMC is “does not increase”.
As to `N#CC[C@H](C1CCCC1)n1cc(-c2ncnc3[nH]ccc23)cn1` [ruxolitinib], the “CB Treg persistence” value in data set [1] is on record as “improved CB Treg persistence”.
